Data on 7 compounds can be found in patent publication US20080201871A1, “ANTIMICROBIAL COLORANTS” (The Regents of the University of California, priority 2003, published 2008).

Data set [1] relates to Staphylococcus aureus (S. aureus, ATCC #12600, Gram-positive). Put plainly: Minimum inhibitory concentration (MIC) procedure in aqueous solution. The data set is classed as cell-based. Conditions: 10^7~10^8 CFU/mL, contact time: 24 hr, MIC = minimum concentration giving more than 4 log reductions. Here is the method: (§1) Antimicrobial activity of the agents in aqueous solution was evaluated by a minimum inhibitory concentration (MIC) procedure ([…]. et al., Pharm. Sci., 65(12):1737 (1976)). MIC refers to the lowest concentration of biocides that prohibit population and reproduction of microorganisms. […] Antimicrobial properties of the antimicrobial colorants in aqueous solutions were measured by the MIC procedure.

Data set [2] deals with Escherichia coli (E. coli, K-12, Gram-negative). The data set is described as above. The data set is classed as cell-based. The settings on record: 10^7~10^8 CFU/mL, contact time: 24 hr, MIC = minimum concentration giving more than 4 log reductions. Here is the method:
as §1

The test system of data set [3] is S. aureus. Put plainly: Antimicrobial efficacy (log reduction) at fixed concentration and contact time. The data set is classed as cell-based, Staphylococcus aureus. The settings on record: contact time 1 minute, 10 ppm.
The test system of data set [4] is E. coli. Described as above. The format is cell-based, Escherichia coli. The settings on record: for Antimicrobial efficacy (Log reduction): contact time 1 minute; for Antimicrobial efficacy (Log reduction) / Antimicrobial Efficacy (log reduction): 10 ppm. Here is the method: Antimicrobial activity of the agents in aqueous solution was evaluated by a minimum inhibitory concentration (MIC) procedure (Kaminski, J. J., Hyycke, N. M. et al., Pharm. Sci., 65(12):1737 (1976)). MIC refers to the lowest concentration of biocides that prohibit population and reproduction of microorganisms. In this method, 1 mL of an aqueous suspension containing 10^6˜10^7 colony-forming units (CFU)/mL of Staphylococcus aureus (S. aureus, ATCC #12600, Gram-positive) or Escherichia coli (E. coli, K-12, Gram-negative) were placed into 9 mL aqueous solutions containing different concentrations of the agents for a contact time of 24 hours. After the contact, a 100 μL aliquot of the resultant solution was serially diluted by sterilized distilled water to 10^1, 10^2, 10^3, 10^4 and 10^5. 100 μL of the last four dilutions were placed onto a nutrient agar plate and incubated at 37° C. for 24 hours. The same procedure was applied to a distilled water solution without the antimicrobial agents as a control. In this paper, the reported MIC of the antimicrobial colorants is the minimum concentrations that can eliminate more than 4 log reductions of bacteria (1 log reduction is 90%, 2 log reduction is 99%, and so forth).
To better study the biocidal rate of these colorants, the antimicrobial efficacy of the colorants in terms of log reduction is assessed against E. Coli under different contact time ranging from 15 minutes to 24 hours.
Next, the antimicrobial efficacy of the colorants is further challenged by reducing the contact time down to 1 minute at the concentration of 10 ppm.

In data set [5] the test system is E. coli. The description is as above. The data set is classed as cell-based, Escherichia coli. The settings on record: E. coli 10^7~10^8 CFU/ml; for Antimicrobial Efficacy (log reduction): 10 ppm.
The nature of data set [6]: Stability study of colorant solutions by UV-vis absorbance. The data set is classed as physicochemical. The settings on record: 100 ppm aqueous; 100° C. for 4 hours. Here is the method:
The stability of the antimicrobial colorants was qualitatively studied by using a UV-vis spectrophotometer under different experimental conditions. The tests were performed with antimicrobial colorant solutions at the concentration of 100 ppm in flasks. The colorants were sampled and the absorbance at the maximum absorption wavelength was tested before treatment as a reference. After visible light exposure in a conditioning room for over 30 days, or heating at boiling for 4 hours, or changing to different pH conditions (pH=4 and 10) for over 24 hours, the solutions were sampled, centrifuged, filtered and tested by UV. The new UV-vis spectra were taken and compared with the control.
The stability of the antimicrobial colorants is of great importance because they are mostly applied in aqueous solutions as biocides or dyes. All stability tests were conducted at a concentration of 100 ppm.
In practical applications, these colorants could be used under either acidic or basic conditions, particularly in coloration of acrylics, nylon and wool. For example, acidic dye bath is preferred for dyeing wool fabrics. Thus, the stability of the colorants in low or high pH solution is more important for textile applications. […] The low stability of those colorants was caused by hydrolysis of an amide linkage between QAS and aminoanthraquinone. […]

`CCCC[N+](C)(C)CC(O)CNc1ccc(NCC(O)C[N+](C)(C)CCCC)c2c1C(=O)c1ccccc1C2=O.[Cl-].[Cl-]` (centres unmarked) [Di-4]: the “MIC of cationic colorants” value in data set [1] and in data set [2] was 200 ppm each time. Further, the “Antimicrobial efficacy (Log reduction)” value in data set [3] and in data set [4] was 0 Log reduction throughout. The “Antimicrobial Efficacy (log reduction)” value in data set [4] (contact time 0.25 hr), in data set [4] (contact time 0.5 hr), in data set [4] (contact time 1 hr), in data set [4] (contact time 2 hr), in data set [4] (contact time 4 hr) and in data set [4] (contact time 8 hr) was 0 log reduction throughout. In addition, the “Antimicrobial Efficacy (log reduction)” value in data set [4] (contact time 16 hr) and in data set [4] (contact time 24 hr) was 0 log reduction in each case.
Regarding `CCCCCCCC[N+](C)(C)CC(O)CNc1ccc(NCC(O)C[N+](C)(C)CCCCCCCC)c2c1C(=O)c1ccccc1C2=O.[Cl-].[Cl-]` (centres unmarked) [Di-8], the “MIC of cationic colorants” value in data set [1] and in data set [2] was 5 ppm each time. Besides, in data set [5] (5 ppm, contact time 1 minute), the Log reduction is reported as 1 Log reduction. Further, the “Antimicrobial Efficacy (log reduction)” value in data set [4] (contact time 0.25 hr), in data set [4] (contact time 0.5 hr), in data set [4] (contact time 1 hr), in data set [4] (contact time 2 hr), in data set [4] (contact time 4 hr) and in data set [4] (contact time 8 hr) was over 4 log reduction each time. Further, the “Antimicrobial Efficacy (log reduction)” value in data set [4] (contact time 16 hr) and in data set [4] (contact time 24 hr) was over 4 log reduction in each case.
Take `CCCCCCCCCCCCCCCC[N+](C)(C)Cc1ccccc1.[Cl-]` [Benzalkonium chloride, Benzyldimethyl-hexadecylammonium chloride, reference compound]: the “Antimicrobial Efficacy (log reduction)” value in data set [5] was found to be 2 log reduction.
For `CCCCCCCCCCCC[N+](C)(C)CC(O)CNc1ccc(NCC(O)C[N+](C)(C)CCCCCCCCCCCC)c2c1C(=O)c1ccccc1C2=O.[Cl-].[Cl-]` (centres unmarked) [Di-12], the “MIC of cationic colorants” value in data set [1] and in data set [2] was 4 ppm throughout. Further, the “Antimicrobial Efficacy (log reduction)” value in data set [5] is given as over 5 log reduction; in data set [4] (contact time 0.25 hr), over 4 log reduction; in data set [4] (contact time 0.5 hr), over 4 log reduction; in data set [4] (contact time 1 hr) it was over 4 log reduction; in data set [4] (contact time 2 hr), over 4 log reduction; in data set [4] (contact time 4 hr), over 4 log reduction. In addition, the “Antimicrobial Efficacy (log reduction)” value in data set [4] (contact time 8 hr), in data set [4] (contact time 16 hr) and in data set [4] (contact time 24 hr) was over 4 log reduction each time. For the same compound, the “Change of UV-vis absorbance after heating” value in data set [6] is “slight increases in absorbance”. Moreover, the “Change of UV-vis wavelength after heating” value in data set [6] was “negligible change”. In addition, the “Biocidal activity compared with CTAB, CPC and Benzalkonium chloride” value in data set [4] (Table 6 conditions) is given as “more efficient in biocidal activity than the other three bactericides”.
For `CCCCCCCCCCCCCCCC[N+](C)(C)CC(O)CNc1ccc(NCC(O)C[N+](C)(C)CCCCCCCCCCCCCCCC)c2c1C(=O)c1ccccc1C2=O.[Cl-].[Cl-]` (centres unmarked) [Di-16], the “MIC of cationic colorants” value in data set [1] and in data set [2] was 60 ppm in each case. Further, the “Antimicrobial efficacy (Log reduction)” value in data set [3] and in data set [4] was 0 Log reduction in each case.
`CCCCCCCCCCCCCCCC[N+](C)(C)C.[Br-]` [CTAB, Cetyltrimethyl ammonium bromide, reference compound]: the “Antimicrobial Efficacy (log reduction)” value in data set [5] is 0 log reduction.
As for `CCCCCCCCCCCCCCCC[N+](C)(C)CC(O)CNc1cccc2c1C(=O)c1ccccc1C2=O.[Cl-]` (centres unmarked) [Compound M-16], the “MIC of cationic colorants” value in data set [1] and in data set [2] was 60 ppm in each case. The “Antimicrobial efficacy (Log reduction)” value in data set [3] and in data set [4] was 0 Log reduction each time.
